Test results taken from patent publication US9492471B2, “Methods of treating a disease or disorder associated with Bruton'S Tyrosine Kinase” (Celgene Avilomics Research, Inc., priority 2013, dated 2016).
Like-named read-outs stand apart in the source and are kept apart here.

How the values were obtained:
Assay in all cases: HotSpot kinase profiling
Format in all cases: biochemical
DMPK = target: T1, DMPK (Homo sapiens, UniProt Q09013)
T1 construct: purchased Reaction Biology Corp
T1 sequence (Q09013 1-629): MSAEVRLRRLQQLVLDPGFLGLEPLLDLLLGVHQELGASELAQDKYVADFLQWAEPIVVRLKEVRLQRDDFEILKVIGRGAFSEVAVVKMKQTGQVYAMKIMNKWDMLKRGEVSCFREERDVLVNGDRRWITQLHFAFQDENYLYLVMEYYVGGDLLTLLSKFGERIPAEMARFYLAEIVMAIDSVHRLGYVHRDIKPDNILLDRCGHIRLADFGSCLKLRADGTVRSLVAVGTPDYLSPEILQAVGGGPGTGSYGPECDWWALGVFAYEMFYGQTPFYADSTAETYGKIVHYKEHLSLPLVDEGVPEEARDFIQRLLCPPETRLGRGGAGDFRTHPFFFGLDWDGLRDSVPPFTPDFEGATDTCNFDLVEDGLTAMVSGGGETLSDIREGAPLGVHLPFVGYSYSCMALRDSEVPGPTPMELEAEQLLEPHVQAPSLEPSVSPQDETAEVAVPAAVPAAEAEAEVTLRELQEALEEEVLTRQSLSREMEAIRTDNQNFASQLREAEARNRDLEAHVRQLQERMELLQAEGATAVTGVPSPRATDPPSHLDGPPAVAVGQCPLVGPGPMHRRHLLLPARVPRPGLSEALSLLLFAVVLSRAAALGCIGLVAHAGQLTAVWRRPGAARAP
Procedure: (§1) The binding assay system for profiling kinase activity were based upon HotSpot technology (Reaction Biology Corp.; Malvern, Pa., USA) and utilized radio-isotope-based P81 filtration. […] Substrates for the various kinases tested against Compound 2 (substrate information available on the Reaction Biology Corp. website) were prepared fresh daily in Reaction Buffer. Any required cofactors were then added to the substrate solution. The identification and selection of the appropriate cofactor for each kinase is within the ability of a person skilled in the art. See, for example, Handbook of Assay Development in Drug Discovery, Ed. Lisa K. Minor, 2006: CRC Press, Boca Raton, Fla.; Gao et al., “A broad activity screen in support of a chemogenomic map for kinase signalling research and drug discovery,” Biochem J. 2013, 451(2): 313-28; and Eglen et al., “Drug discovery and the human kinome: Recent trends,” Pharmacology & Therapeutics 2011, 130(2): 144-156. The kinase was then added to the substrate solution and gently mixed. […] This was followed by incubation at room temperature for 2 h. The reaction was terminated and any unreacted phosphate was washed away using 0.1% phosphoric acid prior to detection utilizing a proprietary technology. […] DMSO was used as the negative control.
(§2) Percent inhibition was expressed as an average where the assay was performed more than once, e.g., in duplicate.

RIPK3 = target: T2, RIPK3 (Homo sapiens, UniProt Q9Y572)
T2 construct: purchased Reaction Biology Corp
T2 sequence (Q9Y572 whole entry): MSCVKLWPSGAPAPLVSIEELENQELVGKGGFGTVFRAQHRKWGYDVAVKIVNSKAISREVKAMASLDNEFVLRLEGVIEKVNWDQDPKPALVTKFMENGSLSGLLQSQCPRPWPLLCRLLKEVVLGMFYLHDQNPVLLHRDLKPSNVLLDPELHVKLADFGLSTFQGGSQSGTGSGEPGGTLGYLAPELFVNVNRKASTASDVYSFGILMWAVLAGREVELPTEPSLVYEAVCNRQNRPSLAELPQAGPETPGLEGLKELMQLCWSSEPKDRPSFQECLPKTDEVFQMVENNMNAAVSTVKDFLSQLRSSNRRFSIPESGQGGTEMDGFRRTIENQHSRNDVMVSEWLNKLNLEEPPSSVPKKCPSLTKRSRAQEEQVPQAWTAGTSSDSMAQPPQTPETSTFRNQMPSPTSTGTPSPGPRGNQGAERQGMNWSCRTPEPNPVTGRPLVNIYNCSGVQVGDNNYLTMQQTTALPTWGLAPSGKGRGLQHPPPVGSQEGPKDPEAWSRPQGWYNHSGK
Procedure: as §1, §2

TLK2 = target: T3, TLK2 (Homo sapiens, UniProt Q86UE8)
T3 construct: purchased Reaction Biology Corp
T3 sequence (Q86UE8 whole entry): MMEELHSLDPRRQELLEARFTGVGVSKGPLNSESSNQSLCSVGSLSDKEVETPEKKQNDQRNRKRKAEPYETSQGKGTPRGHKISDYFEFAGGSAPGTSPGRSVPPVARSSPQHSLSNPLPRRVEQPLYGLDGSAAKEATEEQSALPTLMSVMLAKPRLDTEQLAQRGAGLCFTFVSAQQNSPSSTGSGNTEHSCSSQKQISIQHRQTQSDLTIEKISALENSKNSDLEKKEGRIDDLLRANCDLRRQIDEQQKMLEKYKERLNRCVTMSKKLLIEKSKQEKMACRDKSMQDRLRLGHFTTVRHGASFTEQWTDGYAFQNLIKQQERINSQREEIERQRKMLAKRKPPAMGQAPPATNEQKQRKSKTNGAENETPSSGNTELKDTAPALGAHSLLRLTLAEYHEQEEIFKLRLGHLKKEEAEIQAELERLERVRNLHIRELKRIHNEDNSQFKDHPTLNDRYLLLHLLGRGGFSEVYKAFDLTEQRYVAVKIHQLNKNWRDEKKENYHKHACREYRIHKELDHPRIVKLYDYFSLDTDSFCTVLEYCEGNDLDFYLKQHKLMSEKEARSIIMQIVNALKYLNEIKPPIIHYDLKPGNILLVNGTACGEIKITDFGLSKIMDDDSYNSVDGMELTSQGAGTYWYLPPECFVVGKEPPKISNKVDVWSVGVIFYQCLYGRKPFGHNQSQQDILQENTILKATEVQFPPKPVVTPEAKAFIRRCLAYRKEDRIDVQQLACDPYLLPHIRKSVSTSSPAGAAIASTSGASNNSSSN
Procedure: as §1, §2

RSK2 = target: T4, RSK2 (Homo sapiens, UniProt P51812)
T4 construct: purchased Reaction Biology Corp
T4 sequence (P51812 whole entry): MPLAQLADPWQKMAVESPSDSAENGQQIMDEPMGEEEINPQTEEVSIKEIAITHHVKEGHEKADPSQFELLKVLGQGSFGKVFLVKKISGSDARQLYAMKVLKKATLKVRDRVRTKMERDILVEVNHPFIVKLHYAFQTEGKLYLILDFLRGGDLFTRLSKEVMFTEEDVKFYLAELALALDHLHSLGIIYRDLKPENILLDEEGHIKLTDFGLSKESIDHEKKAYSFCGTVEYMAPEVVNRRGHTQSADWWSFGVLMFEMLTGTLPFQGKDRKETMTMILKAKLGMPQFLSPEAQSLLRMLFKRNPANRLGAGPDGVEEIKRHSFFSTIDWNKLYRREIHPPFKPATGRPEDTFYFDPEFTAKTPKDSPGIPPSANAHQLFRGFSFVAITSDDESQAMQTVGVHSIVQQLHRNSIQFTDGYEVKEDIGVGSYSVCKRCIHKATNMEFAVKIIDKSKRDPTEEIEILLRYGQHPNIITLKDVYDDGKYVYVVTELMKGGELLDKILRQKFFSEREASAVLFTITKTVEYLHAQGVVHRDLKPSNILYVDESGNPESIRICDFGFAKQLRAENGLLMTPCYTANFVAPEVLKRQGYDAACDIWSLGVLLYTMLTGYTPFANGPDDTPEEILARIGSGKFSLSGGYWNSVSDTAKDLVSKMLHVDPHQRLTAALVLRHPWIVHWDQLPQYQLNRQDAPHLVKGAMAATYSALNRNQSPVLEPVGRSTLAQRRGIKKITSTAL
Procedure: as §1, §2

ABL1 = target: T5, ABL1 (Homo sapiens, UniProt P00519)
T5 construct: purchased Reaction Biology Corp
Procedure: as §1, §2

AKT1 = target: T6, AKT1 (Homo sapiens, UniProt P31749)
T6 construct: purchased Reaction Biology Corp
Procedure: as §1, §2

ALK6/BMPR1B = target: T7, ALK6/BMPR1B (Homo sapiens, UniProt O00238)
T7 construct: purchased Reaction Biology Corp
T7 sequence (O00238 14-502): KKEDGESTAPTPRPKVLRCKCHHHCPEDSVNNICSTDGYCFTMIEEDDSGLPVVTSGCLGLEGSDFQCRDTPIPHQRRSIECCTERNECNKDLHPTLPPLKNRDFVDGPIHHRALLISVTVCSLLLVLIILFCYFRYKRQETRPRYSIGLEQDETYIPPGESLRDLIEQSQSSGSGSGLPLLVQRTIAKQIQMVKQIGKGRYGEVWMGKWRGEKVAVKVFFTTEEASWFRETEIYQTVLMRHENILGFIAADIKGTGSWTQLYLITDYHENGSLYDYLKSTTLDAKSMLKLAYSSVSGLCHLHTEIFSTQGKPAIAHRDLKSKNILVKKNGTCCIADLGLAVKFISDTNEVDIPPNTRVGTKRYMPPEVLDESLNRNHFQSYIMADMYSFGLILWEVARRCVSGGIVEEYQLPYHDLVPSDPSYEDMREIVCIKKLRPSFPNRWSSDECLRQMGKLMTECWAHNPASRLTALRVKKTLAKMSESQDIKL
Procedure: as §1, §2

FLT3 = target: T8, FLT3 (Homo sapiens, UniProt P36888)
T8 construct: purchased Reaction Biology Corp
T8 sequence (P36888 27-993): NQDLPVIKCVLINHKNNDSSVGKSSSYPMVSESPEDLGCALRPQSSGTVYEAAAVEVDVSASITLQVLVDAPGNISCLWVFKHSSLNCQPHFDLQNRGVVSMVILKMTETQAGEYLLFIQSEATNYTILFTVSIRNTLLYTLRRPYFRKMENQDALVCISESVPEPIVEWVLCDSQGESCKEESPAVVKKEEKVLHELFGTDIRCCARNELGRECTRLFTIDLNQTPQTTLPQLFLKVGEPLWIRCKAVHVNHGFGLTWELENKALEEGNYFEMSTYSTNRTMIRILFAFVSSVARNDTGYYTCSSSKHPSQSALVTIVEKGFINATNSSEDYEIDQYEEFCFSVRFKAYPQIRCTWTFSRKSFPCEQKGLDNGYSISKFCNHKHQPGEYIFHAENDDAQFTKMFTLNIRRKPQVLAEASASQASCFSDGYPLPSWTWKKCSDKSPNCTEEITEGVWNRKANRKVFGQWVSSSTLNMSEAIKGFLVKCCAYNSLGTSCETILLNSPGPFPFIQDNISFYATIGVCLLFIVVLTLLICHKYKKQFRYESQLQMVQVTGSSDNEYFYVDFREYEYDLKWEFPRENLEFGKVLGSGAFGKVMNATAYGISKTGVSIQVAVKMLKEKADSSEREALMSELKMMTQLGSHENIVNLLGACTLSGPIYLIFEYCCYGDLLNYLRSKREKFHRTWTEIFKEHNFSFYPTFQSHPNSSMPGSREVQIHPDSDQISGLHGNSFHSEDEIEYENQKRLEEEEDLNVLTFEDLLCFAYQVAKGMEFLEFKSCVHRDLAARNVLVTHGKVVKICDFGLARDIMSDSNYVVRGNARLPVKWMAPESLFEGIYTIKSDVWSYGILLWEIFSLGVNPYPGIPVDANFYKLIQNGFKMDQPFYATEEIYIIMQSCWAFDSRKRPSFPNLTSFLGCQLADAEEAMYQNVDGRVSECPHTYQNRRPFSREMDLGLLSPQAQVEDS
Procedure: as §1, §2

MRCKa/CDC42BPA = target: T9, MRCKa/CDC42BPA (Homo sapiens, UniProt Q5VT25)
T9 construct: purchased Reaction Biology Corp
T9 sequence (Q5VT25 whole entry): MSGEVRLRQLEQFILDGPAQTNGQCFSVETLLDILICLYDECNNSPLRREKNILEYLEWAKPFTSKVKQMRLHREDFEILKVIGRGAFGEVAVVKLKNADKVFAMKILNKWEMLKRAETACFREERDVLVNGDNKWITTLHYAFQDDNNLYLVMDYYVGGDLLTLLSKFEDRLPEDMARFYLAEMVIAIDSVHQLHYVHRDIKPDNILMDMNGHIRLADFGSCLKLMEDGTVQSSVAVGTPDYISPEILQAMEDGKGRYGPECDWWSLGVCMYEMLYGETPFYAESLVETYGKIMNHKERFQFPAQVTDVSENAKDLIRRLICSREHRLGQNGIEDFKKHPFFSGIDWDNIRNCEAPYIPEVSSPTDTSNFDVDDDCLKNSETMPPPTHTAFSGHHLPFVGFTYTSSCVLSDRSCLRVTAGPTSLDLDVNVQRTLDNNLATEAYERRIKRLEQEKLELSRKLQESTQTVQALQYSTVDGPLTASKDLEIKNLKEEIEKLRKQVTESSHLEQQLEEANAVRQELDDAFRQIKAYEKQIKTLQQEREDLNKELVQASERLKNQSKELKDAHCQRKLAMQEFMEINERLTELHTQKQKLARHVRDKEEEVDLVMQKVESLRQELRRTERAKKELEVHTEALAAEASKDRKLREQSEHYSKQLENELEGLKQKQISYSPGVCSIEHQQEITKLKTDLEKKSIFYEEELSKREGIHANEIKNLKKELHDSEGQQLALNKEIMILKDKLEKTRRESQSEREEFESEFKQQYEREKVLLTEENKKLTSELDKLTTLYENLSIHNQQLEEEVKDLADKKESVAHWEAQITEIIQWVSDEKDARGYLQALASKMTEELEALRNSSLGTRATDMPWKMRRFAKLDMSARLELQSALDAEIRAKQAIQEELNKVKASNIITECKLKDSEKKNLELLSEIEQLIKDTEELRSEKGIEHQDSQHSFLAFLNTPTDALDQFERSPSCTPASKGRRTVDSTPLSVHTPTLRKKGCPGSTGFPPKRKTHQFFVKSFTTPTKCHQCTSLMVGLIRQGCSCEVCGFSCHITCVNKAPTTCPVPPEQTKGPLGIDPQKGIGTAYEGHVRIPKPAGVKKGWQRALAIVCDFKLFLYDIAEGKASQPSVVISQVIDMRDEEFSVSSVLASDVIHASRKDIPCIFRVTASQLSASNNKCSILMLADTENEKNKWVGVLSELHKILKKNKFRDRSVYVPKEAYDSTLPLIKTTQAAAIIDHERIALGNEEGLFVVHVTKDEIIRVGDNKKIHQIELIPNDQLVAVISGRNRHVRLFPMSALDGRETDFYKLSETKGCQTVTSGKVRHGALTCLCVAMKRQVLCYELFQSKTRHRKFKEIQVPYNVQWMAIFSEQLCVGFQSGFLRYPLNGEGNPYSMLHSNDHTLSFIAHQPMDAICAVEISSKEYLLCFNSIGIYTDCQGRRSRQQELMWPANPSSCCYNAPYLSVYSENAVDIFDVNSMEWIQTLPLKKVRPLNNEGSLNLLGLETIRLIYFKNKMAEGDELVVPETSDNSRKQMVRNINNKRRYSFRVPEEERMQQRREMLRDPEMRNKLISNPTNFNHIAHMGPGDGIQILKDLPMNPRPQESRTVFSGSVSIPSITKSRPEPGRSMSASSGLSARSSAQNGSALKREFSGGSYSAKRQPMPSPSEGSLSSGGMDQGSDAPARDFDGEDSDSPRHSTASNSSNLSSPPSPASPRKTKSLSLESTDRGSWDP
Procedure: as §1, §2

CK1d = target: T10, CK1d (Homo sapiens, UniProt P48730)
T10 construct: purchased Reaction Biology Corp
T10 sequence (P48730 whole entry): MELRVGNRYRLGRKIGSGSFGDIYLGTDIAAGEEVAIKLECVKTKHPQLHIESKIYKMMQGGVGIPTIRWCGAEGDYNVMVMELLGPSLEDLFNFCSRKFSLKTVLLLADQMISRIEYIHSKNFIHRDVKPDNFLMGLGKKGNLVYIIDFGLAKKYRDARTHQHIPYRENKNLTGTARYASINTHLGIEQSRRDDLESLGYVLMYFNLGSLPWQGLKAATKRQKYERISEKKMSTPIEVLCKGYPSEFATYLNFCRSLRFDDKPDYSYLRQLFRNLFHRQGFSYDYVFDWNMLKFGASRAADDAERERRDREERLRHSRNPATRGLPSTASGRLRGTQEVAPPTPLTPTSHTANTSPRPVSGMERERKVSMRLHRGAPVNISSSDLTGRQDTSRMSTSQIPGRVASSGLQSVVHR
Procedure: as §1, §2

[1] = read-out: % Enzyme Activity (relative to DMSO controls) Run 1
[2] = read-out: % Enzyme Activity (relative to DMSO controls) Run 2

Structure (SMILES): C=CC(=O)Nc1cccc(Nc2nc(Nc3ccc(OCCOC)c(F)c3)ncc2F)c1 [Compound 2]
- inhibition at 3 µM (DMPK): -3.25%
- remaining activity at 3 µM (DMPK; [1]): 104%
- remaining activity at 3 µM (DMPK; [2]): 102%
- inhibition at 3 µM (RIPK3): -18.8%
- remaining activity at 3 µM (RIPK3; [1]): 117%
- remaining activity at 3 µM (RIPK3; [2]): 121%
- inhibition at 3 µM (TLK2): -6.32%
- remaining activity at 3 µM (TLK2; [1]): 108%
- remaining activity at 3 µM (TLK2; [2]): 105%
- inhibition at 3 µM (RSK2): 16.6%
- remaining activity at 3 µM (RSK2; [1]): 82.6%
- remaining activity at 3 µM (RSK2; [2]): 84.3%
- inhibition at 3 µM (ABL1): 54.7%
- remaining activity at 3 µM (ABL1; [1]): 45.4%
- remaining activity at 3 µM (ABL1; [2]): 45.2%
- inhibition at 3 µM (AKT1): 5.87%
- remaining activity at 3 µM (AKT1; [1]): 95.1%
- remaining activity at 3 µM (AKT1; [2]): 93.1%
- inhibition at 3 µM (ALK6/BMPR1B): -80.4%
- remaining activity at 3 µM (ALK6/BMPR1B; [1]): 177%
- remaining activity at 3 µM (ALK6/BMPR1B; [2]): 184%
- inhibition at 3 µM (FLT3): 96.8%
- remaining activity at 3 µM (FLT3; [1]): 3.19%
- remaining activity at 3 µM (FLT3; [2]): 3.25%
- inhibition at 3 µM (MRCKa/CDC42BPA): -14.3%
- remaining activity at 3 µM (MRCKa/CDC42BPA; [1]): 114%
- remaining activity at 3 µM (MRCKa/CDC42BPA; [2]): 115%
- inhibition at 3 µM (CK1d): -0.03%
- remaining activity at 3 µM (CK1d; [1]): 99.9%
- remaining activity at 3 µM (CK1d; [2]): 100%
